“Also recorded” adds a separate entry of the source.
System: (S)-adenosyl-L-methionine: Δ^24-sterol methyl transferase (SMT)
Test: Sterol specificity (substrate methylation) of SMT enzyme from 4-day corn seedlings
Format: biochemical, Zea mays (corn)
Details: soluble SMT; (C2), second methyl transfer
Method: The sterol specificity of the microsome-bound and soluble SMT enzyme from 4-day corn seedlings was determined in order to elucidate the enzymatic basis for the plant sterols identified in Example 1.

For `C=C(CC[C@@H](C)[C@H]1CC[C@@]2(C)C3=C(CC[C@]12C)[C@@]1(C)CC[C@H](O)[C@@H](C)[C@@H]1CC3)C(C)C` [Obtusifoliol], the “% Activity, relative to cycloartenol methylation” value was 0 (C2) %.
`C=C(CC[C@@H](C)[C@H]1CC[C@H]2C3=CCC4CC(O)CC[C@]4(C)[C@H]3CC[C@]12C)C(C)C` (stereo partly shown) [Ergosta-7,24(28)-dienol] was tested, and the “% Activity, relative to cycloartenol methylation” value was 0 (C2) %.

System: Heliothis zea
Test: Sterol utilization and metabolism by Heliothis zea reared on artificial diet with sterol supplement
Details: Table 11; insect tissues, RP-HPLC and GC-MS
Method: Heliothis zea (corn earworm) was reared on an artificial diet treated with different sterol supplements to study the relation between sterol structure and utilization in insects. H. zea eggs were used to establish a disease-free stock colony.
The stock insects were reared using sterile procedures on a pinto bean-based diet. Moths were fed 10% sucrose. Cultures were maintained at 27±1° C., at 40±10% relative humidity on a 14:10 light-dark photoperiod and an artificial diet was used to rear the insects on different sterol supplements. The experimental diet contained agar, which is known to contain trace contamination of cholesterol, otherwise the experimental diet was sterol-free.
Sterols were solubilized in acetone. Aliquots of the solutions were added to the sterol-free diet in a mortar, the material mixed thoroughly with the diet, and the organic solvent allowed to evaporate. Sterols were supplied to the medium at 200 ppm (equivalent to 1 mg of sterol per experimental vessel containing one insect).
By day 20, H. zea larva are in the final stage of larval development (sixth instar), after which the insects may pupate. A single neonate larva was placed in an experimental culture vial and allowed to grow for 20 days. The fresh weight, length and instar stage of 20-day larva were recorded.
In some treatments, the larvae were allowed to grow for another 4 days to determine whether they could pupate properly and develop into moth forms.
These fatty alcohols may comigrate with sterols during some forms of chromatography and interfere with sterol quantitation, particularly of cholesterol. Therefore, in order to confirm the identity and amount of cholesterol in the insect an aliquot of the NSF was injected into a HPLC column and the fraction corresponding to cholesterol was examined by GC-MS.

Point of comparison: “24-methyl cholesta-5,23-dienol [24-Methylcholesta-5,23-dienol]”, “Sterol composition (as % total sterol): ts” value 80%. Against it:
- CCC(/C=C/C(C)C1CCC2C3CC=C4CC(O)CCC4(C)C3CCC12C)C(C)C (stereo not shown) [Stigmasterol, stigmasterol] — lower, 15%
- 24-Methyl cholesta-5,24-dienol — lower, 65%
- C/C=C(/CCC(C)C1CCC2C3CC=C4CC(O)CCC4(C)C3CCC12C)C(C)C (stereo not shown) [Isofucosterol] — lower, 8%
- C/C=C(\CC[C@@H](C)[C@H]1CC[C@H]2[C@@H]3CC=C4C[C@@H](O)CC[C@]4(C)[C@H]3CC[C@]12C)C(C)C [Fucosterol] — lower, 10%
- CCC(=CC[C@@H](C)[C@H]1CC[C@H]2[C@@H]3CC=C4CC(O)CC[C@]4(C)[C@H]3CC[C@]12C)C(C)C (stereo partly shown) [24-Ethyl cholesta-5,23-dienol] — higher, 86%

Point of comparison: “24-methyl cholesta-5,23-dienol [24-Methylcholesta-5,23-dienol]”, “Sterol composition (as % total sterol): cholesterol” value 20%. Against it:
- 24-Methyl cholesta-5,24-dienol — higher, 35%
- CCC(=CC[C@@H](C)[C@H]1CC[C@H]2[C@@H]3CC=C4CC(O)CC[C@]4(C)[C@H]3CC[C@]12C)C(C)C (stereo partly shown) [24-Ethyl cholesta-5,23-dienol] — lower, 14%

Same assay, conditions: Table 11; sterol 200 ppm in diet

Point of comparison: “24-methyl cholesta-5,23-dienol [24-Methylcholesta-5,23-dienol]”, “Instar reached by day 20” value 5. Against it:
- CCC(/C=C/C(C)C1CCC2C3CC=C4CC(O)CCC4(C)C3CCC12C)C(C)C (stereo not shown) [Stigmasterol, stigmasterol] — higher, 6
- 24-Methyl cholesta-5,24-dienol — lower, 3
- C=C(C)C(CC)CCC(C)C1CCC2C3CC=C4CC(O)CCC4(C)C3CCC12C (stereo not shown) [Clereosterol] — lower, 3
- CC(C)CCC[C@@H](C)[C@H]1CC[C@@]2(C)C3=C(CC[C@]12C)[C@@]1(C)CC[C@H](O)C(C)(C)[C@@H]1CC3 [24-Dihydrolanosterol] — lower, 3
- C/C=C(/CCC(C)C1CCC2C3CC=C4CC(O)CCC4(C)C3CCC12C)C(C)C (stereo not shown) [Isofucosterol] — higher, 6
- C/C=C(\CC[C@@H](C)[C@H]1CC[C@H]2[C@@H]3CC=C4C[C@@H](O)CC[C@]4(C)[C@H]3CC[C@]12C)C(C)C [Fucosterol] — higher, 6
- C=C(CC[C@@H](C)[C@H]1CC[C@H]2[C@@H]3CC=C4CC(O)CC[C@]4(C)[C@H]3CC[C@]12C)C(C)C (stereo partly shown) [24(28)-Methylenecholesterol, 24(28)-methylenecholesterol] — higher, 6
- CCC(=CC[C@@H](C)[C@H]1CC[C@H]2[C@@H]3CC=C4CC(O)CC[C@]4(C)[C@H]3CC[C@]12C)C(C)C (stereo partly shown) [24-Ethyl cholesta-5,23-dienol] — lower, 3
- CC[C@@H](CC[C@@H](C)[C@H]1CC[C@H]2[C@@H]3CC=C4C[C@@H](O)CC[C@]4(C)[C@H]3CC[C@]12C)C(C)C [Clionasterol] — higher, 6
- 24-Ethyl cholesta-5,24-dienol — lower, 3

Same assay, conditions: Table 11; sterol 200 ppm in diet; 20-day larvae; relative to growth on cholesterol normalized to 100%

Point of comparison: `CCC(=CC[C@@H](C)[C@H]1CC[C@H]2[C@@H]3CC=C4CC(O)CC[C@]4(C)[C@H]3CC[C@]12C)C(C)C` (stereo partly shown) [24-Ethyl cholesta-5,23-dienol], Growth response 20%. Against it:
- CCC(/C=C/C(C)C1CCC2C3CC=C4CC(O)CCC4(C)C3CCC12C)C(C)C (stereo not shown) [Stigmasterol, stigmasterol] — higher, 100%
- 24-Methyl cholesta-5,24-dienol — lower, 5%
- C=C(C)C(CC)CCC(C)C1CCC2C3CC=C4CC(O)CCC4(C)C3CCC12C (stereo not shown) [Clereosterol] — the same, 20%
- CC(C)CCC[C@@H](C)[C@H]1CC[C@@]2(C)C3=C(CC[C@]12C)[C@@]1(C)CC[C@H](O)C(C)(C)[C@@H]1CC3 [24-Dihydrolanosterol] — lower, 5%
- C/C=C(/CCC(C)C1CCC2C3CC=C4CC(O)CCC4(C)C3CCC12C)C(C)C (stereo not shown) [Isofucosterol] — higher, 100%
- 24-methyl cholesta-5,23-dienol [24-Methylcholesta-5,23-dienol] — higher, 50%
- C/C=C(\CC[C@@H](C)[C@H]1CC[C@H]2[C@@H]3CC=C4C[C@@H](O)CC[C@]4(C)[C@H]3CC[C@]12C)C(C)C [Fucosterol] — higher, 100%
- C=C(CC[C@@H](C)[C@H]1CC[C@H]2[C@@H]3CC=C4CC(O)CC[C@]4(C)[C@H]3CC[C@]12C)C(C)C (stereo partly shown) [24(28)-Methylenecholesterol, 24(28)-methylenecholesterol] — higher, 100%
- CC[C@@H](CC[C@@H](C)[C@H]1CC[C@H]2[C@@H]3CC=C4C[C@@H](O)CC[C@]4(C)[C@H]3CC[C@]12C)C(C)C [Clionasterol] — higher, 100%
- 24-Ethyl cholesta-5,24-dienol — lower, 10%

Same assay, conditions: in vivo

Point of comparison: `C=C(CC[C@@H](C)[C@H]1CC[C@H]2[C@@H]3CC=C4CC(O)CC[C@]4(C)[C@H]3CC[C@]12C)C(C)C` (stereo partly shown) [24(28)-Methylenecholesterol, 24(28)-methylenecholesterol], “Sterol composition (as % total sterol): cholesterol” value 84%. Against it:
- C=C(C)C(CC)CCC(C)C1CCC2C3CC=C4CC(O)CCC4(C)C3CCC12C (stereo not shown) [Clereosterol] — lower, 20%

Point of comparison: `C=C(CC[C@@H](C)[C@H]1CC[C@H]2[C@@H]3CC=C4CC(O)CC[C@]4(C)[C@H]3CC[C@]12C)C(C)C` (stereo partly shown) [24(28)-Methylenecholesterol, 24(28)-methylenecholesterol], “Sterol composition (as % total sterol): ts” value 16%. Against it:
- C=C(C)C(CC)CCC(C)C1CCC2C3CC=C4CC(O)CCC4(C)C3CCC12C (stereo not shown) [Clereosterol] — higher, 80%

Point of comparison: `C=C(C)C(CC)CCC(C)C1CCC2C3CC=C4CC(O)CCC4(C)C3CCC12C` (stereo not shown) [Clereosterol], Total sterol µg/insect 3 µg/insect. Against it:
- C=C(CC[C@@H](C)[C@H]1CC[C@H]2[C@@H]3CC=C4CC(O)CC[C@]4(C)[C@H]3CC[C@]12C)C(C)C (stereo partly shown) [24(28)-Methylenecholesterol, 24(28)-methylenecholesterol] — higher, 59 µg/insect

Same assay, conditions: test sterol as sole added dietary sterol

For `CCC(/C=C/C(C)C1CCC2C3CC=C4CC(O)CCC4(C)C3CCC12C)C(C)C` (stereo not shown) [Stigmasterol, stigmasterol], the “Utilization by H. zea / support of larval growth and development (words)” value (from here on “Utilization by H. zea / support”) was “supported larval growth to late-sixth instar”.
In the case of `C/C=C(/CCC(C)C1CCC2C3CC=C4CC(O)CCC4(C)C3CCC12C)C(C)C` (stereo not shown) [Isofucosterol], the “Utilization by H. zea / support” value is reported as “supported larval growth to late-sixth instar”.
In the case of “24-methyl cholesta-5,23-dienol [24-Methylcholesta-5,23-dienol]”, the “Utilization by H. zea / support” value is reported as “non-utilizable; also recorded: #deformities. Insects in the nonutilizable category generally weighed less than 100 mg per insect and their length ranged from 2 to 15 mm, with 6 to 12 insects alive at day 20”.
`C/C=C(\CC[C@@H](C)[C@H]1CC[C@H]2[C@@H]3CC=C4C[C@@H](O)CC[C@]4(C)[C@H]3CC[C@]12C)C(C)C` [Fucosterol] was tested, and the “Utilization by H. zea / support” value was “supported larval growth to late-sixth instar”.
In the case of `C=C(CC[C@@H](C)[C@H]1CC[C@H]2[C@@H]3CC=C4CC(O)CC[C@]4(C)[C@H]3CC[C@]12C)C(C)C` (stereo partly shown) [24(28)-Methylenecholesterol, 24(28)-methylenecholesterol], the “Utilization by H. zea / support” value is reported as “supported larval growth to late-sixth instar”.
With 24-methyl cholesta-5,25(27)-dienol the “Utilization by H. zea / support” value was “non-utilizable”.
In the case of `CC[C@@H](CC[C@@H](C)[C@H]1CC[C@H]2[C@@H]3CC=C4C[C@@H](O)CC[C@]4(C)[C@H]3CC[C@]12C)C(C)C` [Clionasterol], the “Utilization by H. zea / support” value is reported as “supported larval growth to late-sixth instar”.
